Assay results as given in patent US20220354811A1, “METHODS AND COMPOSITIONS FOR MODULATING MACROPHAGES POLARIZATION” (INSERM (INSTITUT NATIONAL DE LA SANTÉ ET DE LA RECHERCHE …, priority 2019, published 2022).

Columns and labels:
[1] = molecular target: T1, caspase 3 (Homo sapiens, UniProt P42574); assay: Caspase 3 activity in untreated monocytes (Ac-DEVD-AMC substrate); format: cell-based; design: endogenous in cells; host or cells: primary human peripheral blood monocytes (CD14-selected, healthy donors); settings: all the concentrations tested, 1 day
T1 sequence (P42574 29-175 limits assumed): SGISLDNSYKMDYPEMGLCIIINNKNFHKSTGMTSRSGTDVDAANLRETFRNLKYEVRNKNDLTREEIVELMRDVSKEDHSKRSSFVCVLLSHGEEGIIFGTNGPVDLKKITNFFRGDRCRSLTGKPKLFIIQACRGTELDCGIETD
T1 sequence (P42574 176-277 limits assumed): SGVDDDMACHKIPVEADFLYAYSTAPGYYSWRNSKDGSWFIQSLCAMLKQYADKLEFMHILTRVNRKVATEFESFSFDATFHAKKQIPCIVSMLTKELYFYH
Method: FIG. 3. Both Q-VD-Oph and Emricasan hamper in the same way apoptosis in untreated monocytes. […] Measures of caspase-3 (DEVD-AMC) and caspase-8 (IETD-AMC) activities. The results are expressed as A.U./mg/min and represent the mean the mean±SD of 3 independent experiments performed in triplicate.
After stimulation, cells were lysed for 30 min at 4° C. in lysis buffer (50 mM HEPES pH 8, 150 mM NaCl, 20 mM EDTA, 1 mM PMSF, 10 μg/mL leupeptin, 10 μg/mL aprotinin and 0.2% Triton X-100) and lysates were cleared at 16 000 g for 15 min at 4° C. Each assay (in triplicate) was performed with 10 μg of protein prepared from control or stimulated cells. Briefly, cellular extracts were then incubated in a 96-well plate with 0.2 mM of DEVD-AMC (Caspase-3) or IETD-AMC (Caspase-8) as substrates for various times at 37° C. Caspase activity was measured either following emission at 460 nm (excitation at 390 nm) in the presence or not of 10 μM of DEVD-CHO or IETD-CHO. Enzyme activities were expressed in arbitrary units (A.U.) per min and per mg of proteins. The same protocol was used with 0.25 units of active recombinant caspase-8 (Enzo, ALX-201-062) or -3 (Enzo, ALX-201-059) in each triplicate.

[2] = test system: human freshly isolated monocytes; assay: Spontaneous apoptosis of untreated monocytes cultured without CSF-1 (Annexin V staining); format: cell-based; settings: 24 h in culture without CSF-1
[3] = molecular target: caspase-8 (Homo sapiens, UniProt Q14790); assay: Caspase-8 activity in cellulo in CSF-1-differentiating monocytes (flow cytometry, IETD); format: cell-based; design: endogenous in cells; host or cells: primary human peripheral blood monocytes exposed to CSF-1; settings: CSF-1 2 days
Description: FIG. 5. […] Caspases activities from 3 different healthy donors was examined by flow cytometry analysis. The results are expressed as percentage of IETD or DEVD positive cells and represent the mean±SD of 3 independent experiments performed in duplicate. n.s. denotes not statistically significant according to a paired student t test. *P<0.05, **P<0.01, ***P<0.001 according to a paired student t test (versus d2). Asterisks indicate cleavage fragments. Each panel is representative of at least 3 independent experiments.
To analyze the macrophagic differentiation of monocytes, the cells were washed with ice-cold phosphate buffered saline (PBS, Life Technologies, 14190169), incubated at 4° C. for 10 min in PBS/bovine serum albumin (BSA 0.5%, Dutscher, 871002) with anti-CD16, anti-CD71 and anti-CD163 or isotype controls (Miltenyi and BD Biosciences, catalog numbers were 130-113-396, 130-097-628 and 551374). […] Fluorescence was measured with a MACSQuant® Analyzer (Miltenyi, Paris, France). […] Fluorescence was measured with a MACSQuant® Analyzer (Miltenyi, Paris, France). […] Fluorescence, that indicate the internalization of particles, was measured with a MACSQuant® Analyzers (Miltenyi, France). Trypan blue solution was used to quench the fluorescence from particles that were not internalized. […]
After 2 days, caspase-8 activity was assessed by flow cytometry using Ac-IETD-FITC as substrate (data not shown).

[4] = test system: caspases 8, 3 and 7; assay: Western blot of caspase cleavage in monocytes; format: cell-based, human; settings: for cleavage of effector caspases-3 and -7 at their specific differentiation cleavage site: monocytes treated 2 days with CSF-1; for cleavage of the zymogens of caspases 8, 3 and 7 in their active 17-20 kDa fragments: untreated monocytes without CSF-1, 24 h
Method: Lysates were centrifuged at 20,000 g (15 min, 4° C.) and supernatants were supplemented with concentrated loading buffer (4× Laemmli buffer). Fifty micrograms of proteins were separated and transferred following standard protocols before analysis with the chemiluminescence detection kit (GE Healthcare, RPN2105).

Chain of caspase-8 (Q14790 217-479): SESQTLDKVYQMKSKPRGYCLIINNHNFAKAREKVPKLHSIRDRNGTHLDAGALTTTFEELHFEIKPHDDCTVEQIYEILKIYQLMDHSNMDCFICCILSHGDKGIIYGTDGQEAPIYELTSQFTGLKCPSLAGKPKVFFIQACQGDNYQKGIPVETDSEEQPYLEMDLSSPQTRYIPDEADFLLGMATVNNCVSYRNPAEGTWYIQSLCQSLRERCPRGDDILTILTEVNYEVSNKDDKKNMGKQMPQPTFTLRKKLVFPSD

effect on caspase-8 activity in cellulo ([3]; added twice at 100 μM)	SMILES	caspase 3 activity in untreated monocytes [1]	concentration sufficient to abrogate Annexin V staining [2] [µM]	single dose that abrogated caspase-8 activity in cellulo ([3]; flow cytometry) [µM]	cleavage of effector caspases-3 and -7 at their specific differentiation cleavage site [4]	cleavage of the zymogens of caspases 8, 3 and 7 in their active 17-20 kDa fragments [4]
–	C[C@H](NC(=O)C(=O)Nc1ccccc1C(C)(C)C)C(=O)N[C@@H](CC(=O)O)C(=O)COc1c(F)c(F)cc(F)c1F [Emricasan, (S)-3-((S)-2-(2-((2-(tert-Butyl)phenyl)amino)-2-oxoacetamido)propanamido)-4-oxo-5-(2,3,5,6-tetrafluorophenoxy)pentanoic acid]	efficiently inhibited	2	2	impaired	abrogated
strong inhibition	CC(C)[C@H](NC(=O)c1ccc2ccccc2n1)C(=O)N[C@@H](CC(=O)O)C(=O)COc1c(F)cccc1F [Q-VD-OPh]	efficiently inhibited	≤ 5	–	impaired	abrogated
